# Test results published in ChEMBL document CHEMBL1201862, “PubChem BioAssay data set” (2004).
# Calls of active or inactive are those of the source.
# Tests used:
# [1] = molecular target: T1, Replicative DNA helicase DnaB (Mycobacterium tuberculosis, UniProt P9WMR3); test: DnaB intein splicing inhibitors, dose response, biochemical, cell-free fluorescence (AID 449749); format: functional
# T1 sequence (P9WMR3 whole entry): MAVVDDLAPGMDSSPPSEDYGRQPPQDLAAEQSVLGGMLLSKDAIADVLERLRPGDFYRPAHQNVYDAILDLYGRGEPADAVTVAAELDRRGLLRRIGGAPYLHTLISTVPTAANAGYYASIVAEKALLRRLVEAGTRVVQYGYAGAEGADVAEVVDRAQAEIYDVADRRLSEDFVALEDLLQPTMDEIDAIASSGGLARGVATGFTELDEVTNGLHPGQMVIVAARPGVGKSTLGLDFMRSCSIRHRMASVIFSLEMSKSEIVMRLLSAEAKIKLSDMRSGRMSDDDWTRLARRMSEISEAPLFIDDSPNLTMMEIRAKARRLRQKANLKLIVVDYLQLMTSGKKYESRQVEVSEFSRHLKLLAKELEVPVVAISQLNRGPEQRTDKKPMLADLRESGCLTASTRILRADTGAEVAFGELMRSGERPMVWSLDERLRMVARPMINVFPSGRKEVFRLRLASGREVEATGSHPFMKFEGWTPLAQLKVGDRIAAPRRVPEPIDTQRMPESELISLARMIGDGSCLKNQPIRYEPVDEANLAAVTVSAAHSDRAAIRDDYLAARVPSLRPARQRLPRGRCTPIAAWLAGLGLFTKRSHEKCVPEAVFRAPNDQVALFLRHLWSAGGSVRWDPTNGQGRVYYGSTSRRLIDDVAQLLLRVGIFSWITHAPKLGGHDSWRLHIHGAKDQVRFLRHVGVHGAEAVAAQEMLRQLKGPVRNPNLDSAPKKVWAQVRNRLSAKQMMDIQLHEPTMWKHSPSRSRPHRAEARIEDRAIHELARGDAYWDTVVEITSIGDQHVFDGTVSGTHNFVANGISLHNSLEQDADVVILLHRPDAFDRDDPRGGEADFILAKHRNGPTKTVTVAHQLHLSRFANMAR
# [2] = molecular target: T2, Protein RecA (Mycobacterium tuberculosis, UniProt P9WHJ3); test: Fluorescence Cell-Free Homogeneous Dose Retest to Identify Inhibitors of RecA-Intein Splicing Activity. [Related pubchem assays (depositor defined):AID2097, AID2223, AID489010, AID492950]; format: functional
# T2 sequence (P9WHJ3 whole entry): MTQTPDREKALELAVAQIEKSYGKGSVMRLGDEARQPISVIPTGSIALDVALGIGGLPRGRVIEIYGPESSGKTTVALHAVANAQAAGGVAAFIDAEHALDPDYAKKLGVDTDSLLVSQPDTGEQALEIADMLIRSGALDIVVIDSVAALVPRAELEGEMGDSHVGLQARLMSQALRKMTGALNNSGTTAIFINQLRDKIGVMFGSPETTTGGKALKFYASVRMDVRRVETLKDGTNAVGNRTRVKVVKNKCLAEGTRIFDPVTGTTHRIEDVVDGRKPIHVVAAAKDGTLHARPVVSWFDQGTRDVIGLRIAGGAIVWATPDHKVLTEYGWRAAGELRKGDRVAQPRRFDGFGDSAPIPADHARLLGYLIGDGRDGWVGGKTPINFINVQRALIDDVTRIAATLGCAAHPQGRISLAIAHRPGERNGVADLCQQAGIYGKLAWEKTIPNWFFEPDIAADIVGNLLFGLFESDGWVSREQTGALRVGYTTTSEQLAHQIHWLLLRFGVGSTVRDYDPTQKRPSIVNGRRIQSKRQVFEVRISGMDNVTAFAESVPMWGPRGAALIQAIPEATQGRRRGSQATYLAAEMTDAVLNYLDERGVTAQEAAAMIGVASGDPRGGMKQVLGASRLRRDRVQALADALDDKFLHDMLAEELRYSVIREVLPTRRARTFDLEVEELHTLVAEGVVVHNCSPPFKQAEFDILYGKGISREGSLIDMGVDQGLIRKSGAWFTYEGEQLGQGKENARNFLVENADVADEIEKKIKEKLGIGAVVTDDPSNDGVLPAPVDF
# [3] = test system: Streptococcus sp. 'group A'; test: growth inhibition of control SK(-) GAS strain, dose response, counter-screen for streptokinase expression inhibitor project, luminescence, kanamycin, BacTiterGlo, confirmation (AID 1900); format: functional, organism-based
# [4] = microbe, parasite or virus in culture; format: functional; details: Mycobacterium tuberculosis
# [5] = test system: Streptococcus; test: Group A Streptococcus viability loss, dose response, counter-screen for streptokinase expression inhibitor project, luminescence, BacTiterGlo (AID 1915); format: functional, organism-based;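 note: potency for reduction of bacterial viability or growth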
# [6] = test system: INS1; test: beta cell apoptosis inhibitors, cytokine rescue, dose response, luminescence, retest (AID 449756); format: functional, cell-based; details: Rattus norvegicus;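 note: cell death triggered by IL-1 beta plus TNF-alpha plus IFN-gamma mixture; protective hits raise ATP signal compared with cytokine alone wells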
# [7] = cells; format: functional, cell-based
# [8] = molecular target: Photoreceptor-specific nuclear receptor (Homo sapiens, UniProt Q9Y5X4); format: functional, cell-based;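 note: CHO-S cells with Gal4-NCOR and VP16-NR2E3 two-hybrid luciferase reporter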
# [9] = molecular target: Nonstructural protein 1 (Influenza A virus, UniProt Q194T2); format: functional, Influenza A virus (A/California/07/2009(H1N1))
# [10] = molecular target: T3, Heat shock factor protein 1 (Mus musculus, UniProt P38532); test: HSF1 potentiators in luciferase reporter cells, confirmation, cell-based, NIH3T3, luminescence, dose retest (AID 435004); format: functional;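 note: stress induced by proteasome inhibitor MG132 added 30 min after compound; luciferase reporter driven by HSF1 response element in NIH3T3 cells; actives raise luminescence as potentiators of the MG132 stress response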
# T3 sequence (P38532 whole entry): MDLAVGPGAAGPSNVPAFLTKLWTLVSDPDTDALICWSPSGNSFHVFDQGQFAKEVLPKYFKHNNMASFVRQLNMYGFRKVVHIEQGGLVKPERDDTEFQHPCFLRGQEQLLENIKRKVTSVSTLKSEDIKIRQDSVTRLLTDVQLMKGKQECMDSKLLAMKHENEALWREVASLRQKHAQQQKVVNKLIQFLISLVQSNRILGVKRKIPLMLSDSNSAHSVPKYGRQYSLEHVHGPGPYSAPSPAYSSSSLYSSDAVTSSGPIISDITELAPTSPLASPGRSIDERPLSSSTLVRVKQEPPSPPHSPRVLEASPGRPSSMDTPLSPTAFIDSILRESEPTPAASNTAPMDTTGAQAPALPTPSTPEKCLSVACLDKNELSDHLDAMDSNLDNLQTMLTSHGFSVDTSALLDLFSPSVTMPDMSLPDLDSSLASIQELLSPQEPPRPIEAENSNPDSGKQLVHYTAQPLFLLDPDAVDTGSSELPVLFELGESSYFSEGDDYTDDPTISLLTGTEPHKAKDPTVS
# [11] = molecular target: T4, Streptokinase A (Streptococcus pyogenes serotype M1, UniProt P10520); test: S. pyogenes streptokinase expression inhibitors, potency, dose response, plasminogen activation absorbance, OD405 (AID 1914); format: functional, Streptococcus pyogenes M1 GAS;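 note: secreted streptokinase activity via plasminogen activation per viability signal from cell pellet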
# T4 sequence (P10520 whole entry): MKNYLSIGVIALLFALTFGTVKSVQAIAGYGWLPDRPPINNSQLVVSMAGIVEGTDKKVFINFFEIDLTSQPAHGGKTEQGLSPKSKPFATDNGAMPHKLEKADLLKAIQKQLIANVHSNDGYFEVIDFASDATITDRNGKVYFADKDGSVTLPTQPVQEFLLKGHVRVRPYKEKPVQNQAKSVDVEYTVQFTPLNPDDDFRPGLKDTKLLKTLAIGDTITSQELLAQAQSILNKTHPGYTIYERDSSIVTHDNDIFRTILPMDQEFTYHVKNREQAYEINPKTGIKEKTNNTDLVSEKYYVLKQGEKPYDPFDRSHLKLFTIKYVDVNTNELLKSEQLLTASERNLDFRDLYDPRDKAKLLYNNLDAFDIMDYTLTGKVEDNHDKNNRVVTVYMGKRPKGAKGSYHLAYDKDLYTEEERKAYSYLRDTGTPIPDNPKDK
# [12] = cells; format: functional, cell-based; remark: listed apart in the source
# [13] = molecular target: E3 ubiquitin-protein ligase Mdm2 (Homo sapiens, UniProt Q00987); test: enhancers of MDM2-luciferase reporter signal, concentration-effect titration, project on inhibitors of MDM2 ubiquitin ligase, cellular assay, luminescent readout, 384-well plate format (AID 1394); format: functional;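 note: MDM2 E3 inhibitors raise luminescence so EC50 is for signal enhancement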
# [14] = molecular target: T5, Carboxy-terminal domain RNA polymerase II polypeptide A small phosphatase 1 (Homo sapiens, UniProt Q9GZU7); test: inhibitors of CTDSP1, concentration-response testing, biochemical assay, absorbance-based, actives from ultra-high-throughput screening (AID 540297); format: functional
# T5 sequence (Q9GZU7 whole entry): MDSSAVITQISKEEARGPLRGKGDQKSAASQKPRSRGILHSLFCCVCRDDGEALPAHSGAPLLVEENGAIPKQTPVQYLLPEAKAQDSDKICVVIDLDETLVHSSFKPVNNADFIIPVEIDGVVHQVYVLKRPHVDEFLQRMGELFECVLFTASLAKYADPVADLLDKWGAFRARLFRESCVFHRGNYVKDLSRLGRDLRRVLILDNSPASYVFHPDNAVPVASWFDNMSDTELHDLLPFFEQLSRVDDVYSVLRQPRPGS
# [15] = molecular target: Low molecular weight phosphotyrosine protein phosphatase (Homo sapiens, UniProt P24666); format: functional; details: read-out: IC50_Mean;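 note: Dose-response confirmation assay measuring inhibition of LMPTP enzyme activity by fluorescence intensity read-out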
# [16] = molecular target: T6, Tyrosine-protein phosphatase non-receptor type 22 (Homo sapiens, UniProt Q9Y2R2); test: LYP phosphatase inhibition for selectivity, dose response, selectivity assay for LMPTP inhibitor project, biochemical, fluorescence, LYP catalytic domain (AID 652006); format: functional; details: read-out: IC50_Mean
# T6 sequence (Q9Y2R2 whole entry): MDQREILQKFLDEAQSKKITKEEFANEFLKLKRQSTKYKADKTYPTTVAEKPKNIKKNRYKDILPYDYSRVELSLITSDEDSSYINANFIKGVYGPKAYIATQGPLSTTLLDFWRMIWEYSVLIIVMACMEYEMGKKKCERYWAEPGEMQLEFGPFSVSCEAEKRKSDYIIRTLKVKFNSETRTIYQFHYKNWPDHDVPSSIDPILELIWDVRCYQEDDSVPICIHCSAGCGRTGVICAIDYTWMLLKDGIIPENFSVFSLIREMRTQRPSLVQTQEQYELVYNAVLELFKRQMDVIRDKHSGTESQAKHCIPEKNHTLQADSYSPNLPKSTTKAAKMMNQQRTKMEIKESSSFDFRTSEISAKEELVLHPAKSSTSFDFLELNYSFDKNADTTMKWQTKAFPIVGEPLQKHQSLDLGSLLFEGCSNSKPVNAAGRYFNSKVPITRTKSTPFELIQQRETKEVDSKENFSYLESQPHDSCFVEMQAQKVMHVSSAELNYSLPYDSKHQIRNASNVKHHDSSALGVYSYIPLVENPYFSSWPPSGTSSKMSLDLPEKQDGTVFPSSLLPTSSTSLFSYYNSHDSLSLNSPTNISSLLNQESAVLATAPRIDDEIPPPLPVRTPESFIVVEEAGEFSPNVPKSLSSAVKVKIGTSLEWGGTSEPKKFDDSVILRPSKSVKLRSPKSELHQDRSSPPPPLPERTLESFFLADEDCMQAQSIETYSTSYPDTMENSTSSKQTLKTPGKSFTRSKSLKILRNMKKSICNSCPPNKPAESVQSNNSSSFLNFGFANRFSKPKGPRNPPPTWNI
# Photoreceptor-specific nuclear receptor, sequence (Q9Y5X4 whole entry, the tested form may be a part): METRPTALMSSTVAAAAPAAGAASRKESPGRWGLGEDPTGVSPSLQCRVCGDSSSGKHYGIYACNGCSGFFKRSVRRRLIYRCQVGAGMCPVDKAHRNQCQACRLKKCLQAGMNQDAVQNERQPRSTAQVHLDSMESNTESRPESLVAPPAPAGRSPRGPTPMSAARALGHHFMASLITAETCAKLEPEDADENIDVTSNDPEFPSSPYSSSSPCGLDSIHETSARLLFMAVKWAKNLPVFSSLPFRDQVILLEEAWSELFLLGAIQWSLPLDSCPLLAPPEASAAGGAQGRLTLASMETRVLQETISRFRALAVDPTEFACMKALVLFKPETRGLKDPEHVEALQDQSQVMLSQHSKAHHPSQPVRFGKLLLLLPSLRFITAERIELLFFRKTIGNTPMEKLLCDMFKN
# Nonstructural protein 1, sequence (Q194T2 whole entry): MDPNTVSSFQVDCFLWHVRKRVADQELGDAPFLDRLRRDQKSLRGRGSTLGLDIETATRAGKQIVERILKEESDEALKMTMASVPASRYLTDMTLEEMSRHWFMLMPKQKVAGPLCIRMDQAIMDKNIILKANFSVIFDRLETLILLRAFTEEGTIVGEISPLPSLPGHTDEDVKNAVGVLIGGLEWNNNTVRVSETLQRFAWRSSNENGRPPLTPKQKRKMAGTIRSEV
# Low molecular weight phosphotyrosine protein phosphatase, sequence (P24666 whole entry, the tested form may be a part): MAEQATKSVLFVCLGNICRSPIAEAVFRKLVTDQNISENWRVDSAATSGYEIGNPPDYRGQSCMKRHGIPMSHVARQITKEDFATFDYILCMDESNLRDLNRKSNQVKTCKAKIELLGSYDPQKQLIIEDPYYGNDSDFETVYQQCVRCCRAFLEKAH
# E3 ubiquitin-protein ligase Mdm2, sequence (Q00987 whole entry, the tested form may be a part): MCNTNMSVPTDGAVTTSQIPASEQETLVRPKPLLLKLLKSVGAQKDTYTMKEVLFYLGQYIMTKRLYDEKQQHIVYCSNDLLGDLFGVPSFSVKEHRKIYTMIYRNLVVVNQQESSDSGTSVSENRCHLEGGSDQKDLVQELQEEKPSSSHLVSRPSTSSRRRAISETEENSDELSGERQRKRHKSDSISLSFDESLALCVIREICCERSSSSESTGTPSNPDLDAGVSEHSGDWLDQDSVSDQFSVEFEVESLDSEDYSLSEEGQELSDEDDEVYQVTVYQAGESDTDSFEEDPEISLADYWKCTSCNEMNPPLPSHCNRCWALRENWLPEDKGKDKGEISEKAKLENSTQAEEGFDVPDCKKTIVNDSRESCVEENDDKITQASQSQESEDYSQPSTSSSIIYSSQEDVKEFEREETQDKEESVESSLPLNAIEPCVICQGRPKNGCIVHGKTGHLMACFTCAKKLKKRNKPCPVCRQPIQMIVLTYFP
Compound,AC50 [1],EC50 [2],EC50 [3],CC50 [4],EC50 [5],AC50 [6],EC50 [7],IC50 [8],IC50 [9],EC50 [10],EC50 [11],EC50 [12],EC50 [13],IC50 [14],IC50 [15],IC50 [16]
Oc1[nH]c2ccccc2c1N=NC(=S)N1CCOCC1,> 380 µM (inactive),12.9 µM (active),0.271 µM (active),5.25 µM (active),5.64 µM (active),2.25 µM (active),> 350 µM (not active),4.03 µM (active),4.88 µM (active),3.31 µM (inconclusive),> 150 µM (not active),7.37 µM (active),2.24 µM (not active),–,–,–
NC(=O)Cc1ccc(C(=O)CSc2nnc(-c3ccncc3)n2C2CC2)s1,–,–,–,–,–,–,–,–,–,–,–,–,–,4.44 µM (active),21 µM (inactive),55.6 µM (inactive)
